According to paper PMC9666555, “Genuine selective caspase-2 inhibition with new irreversible small peptidomimetics” (Cell Death & Disease, 2022):

Tests used:
[1] = biological target: Cathepsin-B (Homo sapiens, UniProt P07858); assay: Non-caspase enzyme assay, Cathepsin-B; type: biochemical; conditions: concentrations up to 10 µM
Description: (§1) Stock solutions were stored at −80 °C. […]
(§2) Non-caspase enzyme assays
(§3) The human pro- kallikrein-1 (pro-hK1) was activated in a buffer containing: Tris-HCl 50 mM, CaCl2 10 mM, NaCl 150 mM, Brij-35 0,05% pH 7,5. Human pro-kallikrein-6 and -8 (pro-hK6 and 8 were activated using Lysyl-endopeptidase (Wako- BioProducts®) at a 1/500 weight ratio, in a buffer containing 50 mM Tris and 0,05% Brij-35 (pH 8). Kinetics using non-caspase enzymes for selectivity studies were done according to the following conditions.
(§4) Enzymes Substrates Buffers
(§5) Cathepsine B (0.2 nM) z-RR-AMC 20 µM Acétate de sodium 0,1 M; EDTA 1mM ; […]
(§6) Cathepsine L (1.2 nM) RLR-AMC 25 µM Acétate de sodium 0,1 M; EDTA 1mM ; […]
(§7) Cathepsine D (0.1 nM) Mca-Gly-Ly s-Pro-Ile-Leu-Phe-Phe- Citrate de Sodium 0,1 M; EDTA 2 mM ; Arg-Leu-Lys(Dnp)-D-Arg-NH2 10 µM Brij-35 0,01%; pH 4 hK1 (4 nM) Boc-VPR-AMC 100µM Tris 50mM; Citrate 1M; Brij-35 0.05%; pH7 hK6 (2 nM ) Boc-QAR -AMC 100 µM Tris 50mM; Citrate 1M; Brij-35 0.05%; pH7 hK8 (1 nM) Boc-VPR-AMC 100µM Tris 50mM; Citrate 1M; Brij-35 0.05%; pH7
(§8) Thrombine (10 mU/mL) Boc-VPR-AMC 100µM Tris 50mM; Citrate 1M; Brij-35 0.05%; pH7 Plasmine (4 nM ) Boc-QAR -AMC 100µM Tris 50mM; Citrate 1M; Brij-35 0.05%; pH7 Trypsine (0.1 nM) Boc-QAR -AMC 100µM Tris 50mM; Citrate 1M; Brij-35 0.05%; pH7

[2] = biological target: T1, Kallikrein-8 (Homo sapiens, UniProt O60259); assay: Non-caspase enzyme assay, Kallikrein-8; type: biochemical; conditions: concentrations up to 10 µM
T1 construct: purchased R&D Systems 2025-SE-010
T1 sequence (O60259 33-260): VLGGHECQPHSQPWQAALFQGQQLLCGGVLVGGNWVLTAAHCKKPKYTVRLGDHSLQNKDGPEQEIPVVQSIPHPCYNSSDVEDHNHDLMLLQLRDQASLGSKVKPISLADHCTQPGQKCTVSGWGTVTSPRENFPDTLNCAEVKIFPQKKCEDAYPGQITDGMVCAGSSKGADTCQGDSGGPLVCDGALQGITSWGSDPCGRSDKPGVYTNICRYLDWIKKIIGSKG
Description: as §1, §2, §3, §4, §5, §6, §7, §8

[3] = tested on: Swiss mice hippocampal neurons; assay: Aβ oligomer-induced dendritic spine loss in hippocampal primary cultures; type: cell-based, mouse; conditions: 100 nM Aβ1-42 oligomers 6 h
Description: For the monoculture model (MBBT4 devices), 20 × 10^3 hippocampal neurons were seeded in each chamber. For the compartmentalized coculture model (neuronal diode in MBBT5 devices), 40 × 10^3 cortical cells and 15 × 10^3 hippocampal cells were seeded in each input chamber and output chamber, respectively. The culture medium was renewed every 5 days. Microfluidic chips were placed in Petri dishes containing 0.1% EDTA (Sigma) and incubated at 37 °C in a 5% CO2 atmosphere. In the neuronal diodes, cortical axons entered the microchannels and reached the hippocampi chamber in around 4–5 days. In both the monoculture and coculture systems, cells were cultured for 3 weeks to allow high dendrites and synapse density and intense electrical firing.
Cells were treated with caspase inhibitors and/or Aβ1–42 at 20 days in vitro. For the hippocampal monocultures, the culture medium was removed and replaced by fresh medium optionally containing 10 nM Aβ1–42 oligomers or monomers, with or without caspase inhibitors. After 6 h, cells were fixed, permeabilized, and subjected to immunolabelling. For cortico-hippocampal compartmentalized cocultures, the medium of the input chamber (cortical) was replaced by fresh medium optionally containing 100 nM Aβ1–42 oligomers or monomers, whereas the medium of the output (hippocampal) chamber was replaced by fresh medium optionally containing, or not, caspases inhibitors. […]
Immunostaining was performed directly in microfluidic chambers as described [38]. […] Images were analyzed using ImageJ software (NIH, Bethesda, MD, USA).
Synaptic disconnection was assessed as described [39] with slight modifications. Briefly, in hippocampal monocultures, synaptic disconnection was assessed through fluorescence microscopy by counting phalloidin clusters affixed to MAP2 and Bassoon. In cortico-hippocampal compartmentalized cocultures, synaptic disconnection was assessed by counting α-Synuclein presynaptic clusters affixed to MAP2-positive hippocampal dendrites. […] The images were similarly processed with ImageJ software before being used for quantification: the brightness/contrast of all control images were optimized manually to eliminate the background and to maximize the signal. The means of the minimum and maximum intensities were then calculated in the control condition and these settings were applied to all images. The brightness/contrast of all images was optimized manually to eliminate the background and maximize the intensity of the signal. α-synuclein/ MAP2 and Phalloidin/MAP2/Bassoon merges were then used for quantification. The number of spines was determined by counting individual clusters along ten dendritic regions (100 µm length each) in three independent experiments for every epitope. Only synapses detected on or near the neurites were included for analysis.

[4] = biological target: human recombinant Caspase-1 (Homo sapiens, UniProt P29466); assay: Additional enzyme kinetics, Caspase-1; conditions: concentrations up to 10 µM
Chain of human recombinant Caspase-1 (P29466 120-297 limits assumed): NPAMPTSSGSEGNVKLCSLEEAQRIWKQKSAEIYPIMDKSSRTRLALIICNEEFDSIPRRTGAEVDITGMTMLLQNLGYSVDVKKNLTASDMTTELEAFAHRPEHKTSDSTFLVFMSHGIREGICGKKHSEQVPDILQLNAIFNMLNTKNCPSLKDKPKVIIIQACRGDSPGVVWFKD
Chain of human recombinant Caspase-1 (P29466 317-404 limits assumed): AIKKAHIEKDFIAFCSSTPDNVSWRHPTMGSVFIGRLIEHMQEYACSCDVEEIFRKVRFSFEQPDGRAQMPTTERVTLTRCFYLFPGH
Description: The human active recombinant Caspase-3 (#707-C3) was purchased from R&D Systems (Minneapolis, USA). […] Stock solutions were stored at −80 °C. […] Caspase inhibitors were solubilized in DMSO at 10 mM and stored at −80 °C.
Initial velocity (V0) was determined from the linear portion of the progress curve. The composition of the activity buffer was: 20 mM HEPES, pH 7.4; 0.1% CHAPS, 5 mM DTT, 2 mM EDTA; 800 mM sodium succinate for Caspase-2 (0.2 nM) with 25 µM of Ac-VDVAD-7-amino-3-methylcoumarin (AMC) and 20 mM HEPES, pH 7.4; 0.1% CHAPS, 5 mM DTT, 2 mM EDTA; supplemented with 1 mg/mL of stabilizing agent bovine serum albumin (BSA) for Caspase-3 (0.1 nM) with 10 μM of Ac-DEVD-AMC. Compounds (0.001–100 µM) were tested in duplicate for each inhibitor concentration to detect their inhibitory potential. Enzymes and compounds were incubated for 30 min before initiating enzymatic reaction by adding substrate. Initial rates determined in control experiments (V0) were considered as 100% of the caspase activity; initial rates that were below 100% in the presence of tested compound (Vi) were considered as inhibition. The inhibitory activity of compounds was expressed as IC50 (Inhibitor concentration giving 50% inhibition). The values of IC50 were calculated by fitting the experimental data using Mars data Analysis 2.0 and KaleidaGraph software.1 %Inhibition=1001−Vi/V0=100I0/IC50+I0

CC(C)[C@H](NC(=O)c1ccc2ccccc2n1)C(=O)N[C@@H](CC(=O)O)C(=O)N[C@H](C(=O)N1CC[C@H](CC(C)(C)C)[C@@H]1C(=O)NC(CC(=O)O)C(=O)COc1c(F)cccc1F)C(C)C (stereo partly drawn) [LJ3a]
effect on Cathepsin-B [1]: very limited or no effect
effect on Kallikrein-8 [2]: very limited or no effect
prevention of dendritic spine loss induced by oligomeric Aβ ([3]; pretreatment at 0.1 µM): 59.63%
prevention of dendritic spine loss induced by oligomeric Aβ ([3]; pretreatment at 1 µM): 89.29%
prevention of dendritic spine loss induced by oligomeric Aβ ([3]; pretreatment at 10 µM): 97.5%
effect on Caspase-1 [4]: very limited or no effect
